According to ChEMBL document CHEMBL5104103 (J Med Chem, 2022):
Values after ≈ are worked out from the molar mass of the structure shown.

Tests used:
[1] = Inhibition of anti-IgM-stimulated CD20+ B cell activation in human whole blood assessed as measuring CD69 expression level pretreated for 1 hr followed by anti-IgM stimulation measured after 18 hrs by flow cytometry
[2] = AUC in rat at 20 mg/kg, po or 2 mg/kg, iv; assay type: ADME, organism-based; set-up: dose 20 mg/kg, route po; details: in vivo, read-out: AUC
[3] = Permeability across apical to basolateral membrane in human Caco-2 cells; assay type: ADME, cell-based; details: read-out: permeability
[4] = Oral bioavailability in rat at 20 mg/kg; assay type: ADME, organism-based; details: in vivo
[5] = Permeability across basolateral to apical membrane in human Caco-2 cells; assay type: ADME, cell-based; details: read-out: permeability
[6] = Solubility of compound in PBS at pH 7 by LCMS/MS analysis; assay type: physicochemical
[7] = Clearance in rat at 2 mg/kg, iv; assay type: ADME, organism-based; details: in vivo
[8] = Clearance in human liver S9 fraction assessed as measuring per mg protein by LCMS/MS analysis; assay type: ADME, subcellular; details: read-out: CLH
[9] = Cmax in rat at 20 mg/kg, po or 2 mg/kg, iv; assay type: ADME, organism-based; set-up: dose 20 mg/kg, route po; details: in vivo
[10] = biological target: T1, Tyrosine-protein kinase TXK (Homo sapiens, UniProt P42681); assay: Inhibition of RLK (unknown origin) using peptide substrate in presence of ATP
T1 sequence (P42681 whole entry): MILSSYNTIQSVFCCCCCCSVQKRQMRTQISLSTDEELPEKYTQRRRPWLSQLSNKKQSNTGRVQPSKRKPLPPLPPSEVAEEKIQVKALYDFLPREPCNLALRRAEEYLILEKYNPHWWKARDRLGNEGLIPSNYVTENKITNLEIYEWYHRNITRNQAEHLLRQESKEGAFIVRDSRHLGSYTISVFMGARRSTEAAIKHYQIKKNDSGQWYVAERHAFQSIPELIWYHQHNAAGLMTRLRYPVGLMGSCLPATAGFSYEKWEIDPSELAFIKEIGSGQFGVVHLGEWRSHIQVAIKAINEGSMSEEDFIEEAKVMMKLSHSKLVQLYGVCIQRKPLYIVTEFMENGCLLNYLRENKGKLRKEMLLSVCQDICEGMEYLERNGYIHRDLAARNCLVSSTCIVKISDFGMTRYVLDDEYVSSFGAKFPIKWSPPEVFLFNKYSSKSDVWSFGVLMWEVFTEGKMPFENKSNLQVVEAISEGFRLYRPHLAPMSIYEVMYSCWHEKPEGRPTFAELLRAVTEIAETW

[11] = Drug concentration in plasma of collagen-induced arthritis Lewis rat model 20 mg/kg measured after 12 hrs post-collection of plasma; assay type: ADME, organism-based
[12] = Drug concentration in plasma of collagen-induced arthritis Lewis rat model 20 mg/kg measured after 24 hrs post-collection of plasma; assay type: ADME, organism-based; details: in vivo, BLD = below limit of detection
[13] = biological target: T2, Tyrosine-protein kinase Tec (Homo sapiens, UniProt P42680); assay: Inhibition of TEC (unknown origin) using peptide substrate in presence of ATP
T2 sequence (P42680 whole entry): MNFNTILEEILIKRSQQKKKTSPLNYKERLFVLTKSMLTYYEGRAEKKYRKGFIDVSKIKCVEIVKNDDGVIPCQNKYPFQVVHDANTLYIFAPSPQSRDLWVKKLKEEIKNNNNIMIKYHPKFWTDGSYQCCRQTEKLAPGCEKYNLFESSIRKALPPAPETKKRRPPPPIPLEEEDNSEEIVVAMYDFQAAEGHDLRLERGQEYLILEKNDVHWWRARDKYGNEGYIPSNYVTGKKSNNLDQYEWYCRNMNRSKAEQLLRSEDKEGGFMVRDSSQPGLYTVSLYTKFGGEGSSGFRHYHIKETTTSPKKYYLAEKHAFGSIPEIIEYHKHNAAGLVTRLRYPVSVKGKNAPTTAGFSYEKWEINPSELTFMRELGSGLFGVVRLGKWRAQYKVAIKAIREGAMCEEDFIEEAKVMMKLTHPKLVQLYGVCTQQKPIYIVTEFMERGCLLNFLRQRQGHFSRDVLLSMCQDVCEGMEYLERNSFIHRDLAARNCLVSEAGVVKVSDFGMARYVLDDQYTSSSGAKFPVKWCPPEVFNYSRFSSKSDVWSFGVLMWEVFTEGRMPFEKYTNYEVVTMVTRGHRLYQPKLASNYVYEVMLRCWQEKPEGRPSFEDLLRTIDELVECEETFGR

[14] = Drug concentration in plasma of collagen-induced arthritis Lewis rat model 20 mg/kg measured after 1 hr post-collection of plasma; assay type: ADME, organism-based
[15] = biological target: T3, Cytoplasmic tyrosine-protein kinase BMX (Homo sapiens, UniProt P51813); assay: Inhibition of BMX (unknown origin) using peptide substrate in presence of ATP
T3 sequence (P51813 whole entry): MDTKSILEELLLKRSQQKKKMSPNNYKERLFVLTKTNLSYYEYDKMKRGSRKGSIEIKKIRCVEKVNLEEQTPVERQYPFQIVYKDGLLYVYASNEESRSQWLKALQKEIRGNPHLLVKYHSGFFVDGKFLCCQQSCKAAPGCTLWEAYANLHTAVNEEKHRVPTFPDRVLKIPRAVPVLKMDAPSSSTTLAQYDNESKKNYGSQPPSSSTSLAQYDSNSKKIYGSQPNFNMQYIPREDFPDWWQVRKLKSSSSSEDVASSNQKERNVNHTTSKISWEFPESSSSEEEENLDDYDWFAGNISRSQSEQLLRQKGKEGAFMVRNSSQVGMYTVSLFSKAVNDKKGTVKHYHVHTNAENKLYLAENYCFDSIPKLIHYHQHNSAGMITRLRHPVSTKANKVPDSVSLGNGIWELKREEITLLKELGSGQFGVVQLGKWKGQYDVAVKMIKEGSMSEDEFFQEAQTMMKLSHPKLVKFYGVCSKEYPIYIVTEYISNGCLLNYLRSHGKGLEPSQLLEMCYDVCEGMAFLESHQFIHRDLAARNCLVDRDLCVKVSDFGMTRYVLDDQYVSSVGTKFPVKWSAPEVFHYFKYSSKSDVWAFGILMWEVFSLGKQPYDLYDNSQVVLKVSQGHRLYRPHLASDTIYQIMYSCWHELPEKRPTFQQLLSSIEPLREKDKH

[16] = Drug concentration in plasma of collagen-induced arthritis Lewis rat model 20 mg/kg measured after 4 hrs post-collection of plasma; assay type: ADME, organism-based
[17] = biological target: Tyrosine-protein kinase Blk (Homo sapiens, UniProt P51451); assay: Inhibition of BLK (unknown origin) using peptide substrate in presence of ATP
[18] = biological target: Voltage-gated inwardly rectifying potassium channel KCNH2 (Homo sapiens, UniProt Q12809); assay: Inhibition of hERG; assay type: toxicity
Sequence of Voltage-gated inwardly rectifying potassium channel KCNH2 (Q12809 whole entry): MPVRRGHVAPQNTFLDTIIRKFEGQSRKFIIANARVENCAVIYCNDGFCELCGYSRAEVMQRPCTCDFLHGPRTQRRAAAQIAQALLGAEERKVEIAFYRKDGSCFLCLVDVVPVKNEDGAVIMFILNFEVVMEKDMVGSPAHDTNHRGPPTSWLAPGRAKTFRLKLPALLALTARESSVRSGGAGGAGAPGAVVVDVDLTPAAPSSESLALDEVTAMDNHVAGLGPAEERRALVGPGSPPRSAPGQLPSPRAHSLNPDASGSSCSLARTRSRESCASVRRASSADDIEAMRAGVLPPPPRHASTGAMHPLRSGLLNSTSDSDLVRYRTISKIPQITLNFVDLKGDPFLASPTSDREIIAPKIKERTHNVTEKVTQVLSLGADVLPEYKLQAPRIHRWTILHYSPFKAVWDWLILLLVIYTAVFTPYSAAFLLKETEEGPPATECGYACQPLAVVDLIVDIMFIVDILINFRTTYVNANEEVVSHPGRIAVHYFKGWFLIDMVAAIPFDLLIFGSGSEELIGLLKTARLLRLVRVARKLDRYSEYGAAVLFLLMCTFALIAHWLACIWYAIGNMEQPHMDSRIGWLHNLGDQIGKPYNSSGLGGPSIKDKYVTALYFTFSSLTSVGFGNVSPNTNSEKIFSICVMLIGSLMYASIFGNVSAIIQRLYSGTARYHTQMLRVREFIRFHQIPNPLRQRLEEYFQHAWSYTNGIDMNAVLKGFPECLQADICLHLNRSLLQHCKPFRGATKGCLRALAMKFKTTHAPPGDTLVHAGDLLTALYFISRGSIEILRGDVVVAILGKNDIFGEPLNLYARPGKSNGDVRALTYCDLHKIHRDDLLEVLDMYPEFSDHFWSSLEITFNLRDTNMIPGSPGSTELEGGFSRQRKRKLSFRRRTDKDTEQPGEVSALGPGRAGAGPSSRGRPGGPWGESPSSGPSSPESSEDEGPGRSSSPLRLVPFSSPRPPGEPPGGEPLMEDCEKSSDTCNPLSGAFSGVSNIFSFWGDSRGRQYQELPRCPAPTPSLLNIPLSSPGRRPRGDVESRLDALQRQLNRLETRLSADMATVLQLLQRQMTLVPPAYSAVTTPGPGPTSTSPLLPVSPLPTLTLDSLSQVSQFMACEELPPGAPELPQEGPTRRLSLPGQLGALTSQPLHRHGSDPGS

Sequence of Tyrosine-protein kinase Blk (P51451 whole entry): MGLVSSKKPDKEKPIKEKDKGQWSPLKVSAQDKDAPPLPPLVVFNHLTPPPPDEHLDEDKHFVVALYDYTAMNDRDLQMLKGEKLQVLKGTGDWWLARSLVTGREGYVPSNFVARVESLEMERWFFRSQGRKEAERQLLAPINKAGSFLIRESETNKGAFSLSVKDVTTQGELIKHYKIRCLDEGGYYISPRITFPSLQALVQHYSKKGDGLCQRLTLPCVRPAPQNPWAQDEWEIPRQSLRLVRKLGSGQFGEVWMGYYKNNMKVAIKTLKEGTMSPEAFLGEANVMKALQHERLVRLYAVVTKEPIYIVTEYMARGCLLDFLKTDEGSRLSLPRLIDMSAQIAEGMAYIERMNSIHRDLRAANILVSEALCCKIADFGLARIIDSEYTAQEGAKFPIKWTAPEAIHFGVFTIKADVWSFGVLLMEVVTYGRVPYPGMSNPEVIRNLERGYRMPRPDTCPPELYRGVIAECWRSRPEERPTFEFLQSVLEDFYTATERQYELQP

SMILES	IC50 [1] [nM]	Papp A→B [3] [×10⁻⁶ cm/s]	Papp B→A [5] [×10⁻⁶ cm/s]	solubility [6] [µM]	microsomal CLint [8] [µL/min/mg]	also measured
CN(C)C(C)(C)/C=C(\C#N)C(=O)N1CCC[C@@H](n2nc(-c3ccc(Oc4ccccc4)cc3F)c3c(N)ncnc32)C1	158	–	–	–	–	–
C[C@@H]1CN(C(C)(C)/C=C(\C#N)C(=O)N2CCC[C@@H](n3nc(-c4ccc(Oc5ccccc5)cc4F)c4c(N)ncnc43)C2)C[C@H](C)N1	442	–	–	–	–	–
N#C/C(=C/C1CC1)C(=O)N1CCC[C@@H]1Cn1nc(-c2ccc(Oc3ccccc3)cc2F)c2c(N)ncnc21	196	–	–	–	–	–
CC(C)(/C=C(\C#N)C(=O)N1CCC[C@@H](n2nc(-c3ccc(Oc4ccccc4)cc3F)c3c(N)ncnc32)C1)CO	821	–	–	–	–	–
COCCN1CCN(C(C)(C)/C=C(\C#N)C(=O)N2CCC[C@@H](n3nc(-c4ccc(Oc5ccccc5)cc4F)c4c(N)ncnc43)C2)CC1	169	0.2	6	210 (≈ 140 µg/mL)	49	–
CC1(/C=C(\C#N)C(=O)N2CCC[C@@H](n3nc(-c4ccc(Oc5ccccc5)cc4F)c4c(N)ncnc43)C2)COC1	224	–	–	–	–	–
C[C@@H]1CN(C(C)(C)/C=C(\C#N)C(=O)N2CCC[C@@H](n3nc(-c4ccc(Oc5ccccc5)cc4F)c4c(N)ncnc43)C2)C[C@H](C)N1C	128	0.3	2.5	263 (≈ 171 µg/mL)	14	inhibition (INH) [18]: Active; AUC [2]: 2460 ng·h/mL; bioavailability [4]: 67%; clearance [7]: 91 mL/min/kg; Cmax [9]: 392 ng/mL

More lines, main results first:

IC50 [1] [nM]	Papp A→B [3] [×10⁻⁶ cm/s]	Papp B→A [5] [×10⁻⁶ cm/s]	solubility [6] [µM]	microsomal CLint [8] [µL/min/mg]	SMILES	also measured
179	3.2	24	1.1 (≈ 0.735 µg/mL)	68	COC(=O)N1CCN(C(C)(C)/C=C(\C#N)C(=O)N2CCC[C@@H](n3nc(-c4ccc(Oc5ccccc5)cc4F)c4c(N)ncnc43)C2)CC1	AUC [2]: 432 ng·h/mL; bioavailability [4]: 11.5%; clearance [7]: 89 mL/min/kg; Cmax [9]: 142 ng/mL
360	–	–	–	–	CC(C)(N)/C=C(\C#N)C(=O)N1CCC[C@@H](n2nc(-c3ccc(Oc4ccccc4)cc3F)c3c(N)ncnc32)C1	–
123	1.7	5.3	125 (≈ 83.2 µg/mL)	23	CC(C)(/C=C(\C#N)C(=O)N1CCC[C@@H](n2nc(-c3ccc(Oc4ccccc4)cc3F)c3c(N)ncnc32)C1)N1CCN(C2COC2)CC1 [RILZABRUTINIB]	IC50 [10]: 1.2 nM; concentration at 12 h [11]: 4.6 ng/mL; Cp [12]: Bld; AUC [2]: 622 ng·h/mL; bioavailability [4]: 12.3%; IC50 [13]: 0.8 nM; clearance [7]: 66 mL/min/kg; concentration at 1 h [14]: 128 ng/mL; IC50 [15]: 1 nM; Cmax [9]: 270 ng/mL; concentration at 4 h [16]: 106 ng/mL; IC50 [17]: 6.3 nM
381	1	25.8	–	–	CC(C)(/C=C(\C#N)C(=O)N1CCC[C@@H](n2nc(-c3ccc(Oc4ccccc4)cc3F)c3c(N)ncnc32)C1)N1CCNC(=O)C1	–
193	0.6	22	31 (≈ 20.2 µg/mL)	–	CC(=O)N1CCN(C(C)(C)/C=C(\C#N)C(=O)N2CCC[C@@H](n3nc(-c4ccc(Oc5ccccc5)cc4F)c4c(N)ncnc43)C2)CC1	–
16.7	–	–	–	–	CC(C)(/C=C(\C#N)C(=O)N1CCC[C@@H](n2nc(-c3ccc(Oc4ccccc4)cc3F)c3c(N)ncnc32)C1)N1CCOCC1	–
130	0.4	5.5	90 (≈ 57.4 µg/mL)	80	CN1CCN(C(C)(C)/C=C(\C#N)C(=O)N2CCC[C@@H](n3nc(-c4ccc(Oc5ccccc5)cc4F)c4c(N)ncnc43)C2)CC1=O	AUC [2]: 528 ng·h/mL; bioavailability [4]: 10.9%; clearance [7]: 73 mL/min/kg; Cmax [9]: 345 ng/mL
401	0.07	3.4	238 (≈ 145 µg/mL)	–	CC(C)(/C=C(\C#N)C(=O)N1CCC[C@@H](n2nc(-c3ccc(Oc4ccccc4)cc3F)c3c(N)ncnc32)C1)N1CCNCC1	–
